According to ChEMBL document CHEMBL1139932, “Structure-based organic synthesis of unnatural aeruginosin hybrids as potent inhibitors of thrombin” (Bioorg Med Chem Lett, 2007):

target: Prothrombin (Homo sapiens, UniProt P00734); experiment: Inhibition of thrombin

How did the IC50 turn out when `CC(C)C[C@@H](NC(=O)[C@H](O)Cc1ccccc1)C(=O)N1[C@H](C(=O)NCCC2=CCN(C(=N)N)C2)C[C@@H]2CCCC[C@@H]21` was run?
Its IC50 is 120 nM.

`CC(C)C[C@@H](NC(=O)[C@H](O)Cc1ccccc1)C(=O)N1[C@H](C(=O)NCCCCN=C(N)N)C[C@@H]2CC[C@@H](O)C[C@@H]21` was tested. Which IC50 did it give?
Its IC50 is 5600 nM.

Which IC50 does the source give for `CC(C)C[C@@H](NC(=O)[C@H](O)Cc1ccccc1)C(=O)N1[C@H](C(=O)NCCCCN=C(N)N)C[C@@H]2CCCC[C@@H]21` here?
The IC50 was 1500 nM.

With `CC(C)C[C@@H](NC(=O)[C@H](O)Cc1ccccc1)C(=O)N1[C@H](C(=O)NCCC2=CCN(C(=N)N)C2)C[C@@H]2CC[C@@H](O)C[C@@H]21` as the molecule, how does the IC50 read?
Its IC50 is 220 nM.

For `CC[C@@H](C)[C@@H](NC(=O)[C@H](O)Cc1ccccc1)C(=O)N1CCC[C@H]1C(=O)NCc1ccc(C(=N)N)cc1`, which IC50 is on record?
The IC50 was 7 nM.

With `CC(C)[C@H](Cl)[C@@H](NC(=O)[C@H](O)Cc1ccccc1)C(=O)N1[C@H](C(=O)NCc2ccc(C(=N)N)cc2)C[C@@H]2CCCC[C@@H]21` as the molecule, how does the IC50 read?
The IC50 was 1.6 nM.

With `CC[C@H](C)[C@@H](N)C(=O)N1[C@H](C(=O)NCc2ccc(C(=N)N)cc2)C[C@@H]2CCCC[C@@H]21` as the molecule, how does the IC50 read?
The IC50 was 101 nM.

For `CC[C@H](C)[C@@H](NC(=O)[C@H](O)Cc1ccccc1)C(=O)N1[C@H](C(=O)NCc2ccc(C(=N)N)cc2)C[C@@H]2CCCC[C@@H]21`, which IC50 is on record?
Its IC50 is 3.3 nM.

With `N=C(N)c1ccc(CNC(=O)[C@@H]2C[C@@H]3CCCC[C@@H]3N2C(=O)C(NC(=O)[C@H](O)Cc2ccccc2)C2CCCCC2)cc1` (stereo partly specified) as the molecule, how does the IC50 read?
Its IC50 is 3.4 nM.

How did the IC50 turn out when `CC(C)C[C@@H](NC(=O)[C@H](O)Cc1ccccc1)C(=O)N1[C@H](C(=O)NCc2ccc(C(=N)N)cc2)C[C@@H]2CCCC[C@@H]21` was run?
Its IC50 is 97 nM.

With `CC(C)[C@H](Cl)[C@@H](NC(=O)[C@H](O)Cc1ccccc1)C(=O)N1[C@H](C(=O)NCCCCN=C(N)N)C[C@@H]2CC[C@@H](O)C[C@@H]21` as the molecule, how does the IC50 read?
The IC50 was 310 nM.

`CC[C@H](C)[C@@H](NC(=O)CCc1ccccc1)C(=O)N1[C@H](C(=O)NCc2ccc(C(=N)N)cc2)C[C@@H]2CCCC[C@@H]21` was tested. Which IC50 did it give?
The IC50 was 334 nM.

For `CO[C@H](CO)C(=O)N[C@@H](C(=O)N1[C@H](C(=O)NCCC2=CCN(C(=N)N)C2)C[C@@H]2C[C@H](O)[C@@H](O)C[C@@H]21)[C@@H](Cl)C(C)C`, which IC50 is on record?
Its IC50 is 11 nM.

Which IC50 does the source give for `CC[C@H](C)[C@@H](NC(C)=O)C(=O)N1[C@H](C(=O)NCc2ccc(C(=N)N)cc2)C[C@@H]2CCCC[C@@H]21` here?
The IC50 was 786 nM.

How did the IC50 turn out when `CC[C@H](C)C(NC(=O)OC(C)(C)C)C(=O)N1[C@H](C(=O)NCc2ccc(C(=N)N)cc2)C[C@@H]2CCCC[C@@H]21` (single isomer, unassigned) was run?
Its IC50 is 171 nM.

With `CC[C@H](C)C(NC(=O)[C@@H](C)O)C(=O)N1[C@H](C(=O)NCc2ccc(C(=N)N)cc2)C[C@@H]2CCCC[C@@H]21` (single isomer, unassigned) as the molecule, how does the IC50 read?
The IC50 was 53 nM.
